Laboratory results taken from patent publication US20240140953A1, “INHIBITORS OF MENIN-MLL INTERACTION” (BIOMEA FUSION, INC., priority 2018, published 2024).
“Also recorded” adds a separate entry of the source. Like-named read-outs stand apart in the source and are kept apart here.

How the values were obtained:
MOLM-13 (MLL-AF9) = test: Proliferation study, CellTiterGlo, 4 days (Example 102), MOLM-13; assay type: cell-based, human; details: MOLM-13, 4 days treatment; for IC50: Homo sapiens, 96 h, CellTiterGlo; for MOLM-13 (MLL-AF9) % max: maximal inhibition
From the text: (§1) The objective of the study was to evaluate the ability of representative compounds of the present invention, inhibitors of Menin/MLL interaction to inhibit cell proliferation. The proliferation inhibitory effect was investigated in two human MLL-leukemia cells selected on the bases of MLL fusion protein and listed in Table 102. HL-60 cell line was used as negative control.
(§2) ATP is present in all metabolically active cells and is considered as a marker for cell viability and proliferation. The metabolic cell activity was determined using the CellTiter-Glo kit from Promega, an ATP monitoring system based on the production of luminescence by the reaction of ATP with added UltraGlo® recombinant luciferase (Kawano et al., 2016), according to the supplier's experimental recommendations.
(§3) The described assay evaluates the ability of 4 representative compounds to inhibit the cell proliferation in the human MLL-leukemia cells plus a negative control cell line.
(§4) The assay provides potency values (IC50) for each test compound at a single time point Day 4 (T4).
(§5) Seven concentrations of the compounds (2.00E-05-6.67E-06-2.22E-06-7.41E-07-2.47E-07-8.23E-08-2.74E-08M), were assessed in duplicate in an individual test occasion in all the cell lines. MI-503 (Borkin et al., 2015) was used as reference compound and was tested at the same concentrations as the NCEs. 100% of proliferation is represented by the untreated cells (0.2% DMSO). The cell growth was monitored up to 4 days in culture.
(§6) MV4-11, MOLM-13 and HL-60 cells (see Table 2) were maintained in RPMI-1640 medium (Invitrogen, Cat. n. 618700, Batch n. 1965930) supplemented with 10% of Heat Inactivated FBS (Invitrogen, Cat n. 10500, Batch n. 08Q8078K) and 1% Pen-Strep (Invitrogen, Cat. N. 15140, Batch n. 1910859) and cultured at 37° C. in a humidified incubator with 5% CO2. All the cell lines grow in suspension and the cell density was maintained in a range of 2×10^5-1×10^6 viable cells/ml. Cells were pelleted at 130 g×5 min and conditioned medium was used to dilute the cell suspension.
(§7) Test items were dissolved in glass vials at 10 mM in DMSO with purity ≥99.9% (Sigma, D8418, batch n. SHBH4245V) and stored at −20° C. in 1.5 mL Eppendorf tubes.
(§8) Serial dilutions 1 to 3 in DMSO 100% were prepared starting from a 10 mM stock solutions to generate 7 points concentration response curve (CRC).
(§9) For each plate to test, one 0.4 μL copy plate and four 0.3 μL copy plates were then stamped into 96-well plates not treated for cell adhesion (Sarstedt—cat.no. 82.1581.001) by acoustic liquid Handling, Echo, at a concentration which was 500 fold the final assay concentration. Stamped plates were stored at −20° C. The final concentrations for the reference compound, MI-503, and the test items were: 2.00E-05, 6.67E-06, 2.22E-06, 7.41E-07, 2.47E-07, 8.23E-08 and 2.74E-08 M.
(§10) Cells were plated in 96-well flat bottom microtiter plates at cell density of 15,000 cells/ml for HL-60, 1000 cells/ml for MOLM-13 and 10,000 cell/ml for MV4-11. Cells were treated with 0.2% DMSO (Sigma, D8418, batch n. SHBH4245V) or serial dilutions of compounds (0.027 μM-20 μM) in DMSO (0.2% final concentration). Cells were incubated in a 5% CO2 incubator at 37° C. for 4 days. A CellTiterGlo viability assay (Promega) was employed. Luminescence was read by using VictorV (Perkin Elmer) multilabel plate reader using the standard protocol for luminescence in 96 well plate. The experiment was performed in duplicate.
(§11) Data were expressed as % of inhibition compared to the 0.2% DMSO negative control, and was calculated as follows: […]
(§12) CRCs were analysed by GraphPad and IC50 values were calculated by non-linear regression using 4 parameter-logistic equation. IC50 (μM) values were reported in the final data table. The curve fittings were performed leaving free all the parameters. Any constrain were reported in the results table.

HL-60 = test: Proliferation study, CellTiterGlo, 4 days (Example 102), HL-60; assay type: cell-based; details: HL-60, 4 days treatment; for IC50: Homo sapiens, 96 h, CellTiterGlo; for HL-60 % max: maximal inhibition
From the text: as §1, §2, §3, §4, §5, §6, §7, §8, §9, §10, §11, §12

[1] = read-out: MOLM-13 (MLL-AF9) IC50
[2] = read-out: MOLM-13 (MLL-AF9) pIC50 (converted)
[3] = read-out: HL-60 pIC50 (converted)

| IC50 (MOLM-13 (MLL-AF9); [1]) [nM] | IC50 (MOLM-13 (MLL-AF9); [2]) [nM] | IC50 (HL-60; read-out: HL-60 IC50) [nM] | IC50 (HL-60; [3]) [nM] | Compound | inhibition of cell viability (in words) (MOLM-13 (MLL-AF9); up to 20 μM) | inhibition of cell viability (in words) (HL-60; up to 20 μM) | MOLM-13 (MLL-AF9) % max (MOLM-13 (MLL-AF9)) [%] | HL-60 % max (HL-60) [%] |
| --- | --- | --- | --- | --- | --- | --- | --- | --- |
| ~710 | ~708 | > 20000 | > 20000 | O=C(Cc1cc(-c2cccnc2)n[nH]1)Nc1ccc(-c2nc3c(N4CCOCC4)ncnc3[nH]2)cc1 [Compound 12, N-{4-[6-(morpholin-4-yl)-9H-purin-8-yl]phenyl}-2-[3-(pyridin-3-yl)-1H-pyrazol-5-yl]acetamide] | slightly active | not active up to the highest concentration tested; also recorded: completely inactive up to the highest concentration tested |  |  |
| 260 | 257 | 510 | 513 | Cn1nc(-c2cccnc2)cc1CC(=O)Nc1ccc(-c2cc3c(N4CCOCC4)ncnc3[nH]2)cc1 [Compound 11, 2-[1-methyl-3-(pyridin-3-yl)-1H-pyrazol-5-yl]-N-{4-[4-(morpholin-4-yl)-7H-pyrrolo[2,3-d]pyrimidin-6-yl]phenyl}acetamide] |  |  | 95 | 102 |
| 320 | 324 | 320 | 316 | O=C(Nc1ccc(-c2cc3c(N4CCOCC4)ncnc3[nH]2)cc1)Nc1cc(-c2cccnc2)n[nH]1 [Compound 9, 1-{4-[4-(morpholin-4-yl)-7H-pyrrolo[2,3-d]pyrimidin-6-yl]phenyl}-3-[3-(pyridin-3-yl)-1H-pyrazol-5-yl]urea] |  |  | 94 | 69 |
